Among the data in patent US9487483B2, “Complement pathway modulators and uses thereof” (priority 2012, dated 2016) are IC50 values, retold here.

In one assay the target is Recombinant human factor D (Homo sapiens (Human), UniProt P00746). The assay can be described thus: biochemical. In kind it is biochemical. Conditions: Factor D inhibition data using Method 1; substrate Z-Lys-thiobenzyl, fluorescence readout; read-out: IC50.
Chain of Recombinant human factor D (P00746 26-253): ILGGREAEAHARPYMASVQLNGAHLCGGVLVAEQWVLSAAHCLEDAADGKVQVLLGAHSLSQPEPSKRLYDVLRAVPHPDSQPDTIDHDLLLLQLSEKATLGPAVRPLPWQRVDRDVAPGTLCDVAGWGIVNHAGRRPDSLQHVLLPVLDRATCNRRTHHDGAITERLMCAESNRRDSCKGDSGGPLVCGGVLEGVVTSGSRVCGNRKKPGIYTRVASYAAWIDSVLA
Consider `CC1(C)CCCC(NC(=O)[C@@H]2C[C@@]3(CO)C[C@H]3N2C(=O)Cn2nc(C(N)=O)c3ccccc32)C1` (stereo partly drawn) [Example 110, 1-{2-[(1R,3S,5S)-3-(3,3-Dimethyl-cyclohexylcarbamoyl)-5-hydroxymethyl-2-aza-bicyclo[3.1.0]hex-2-yl]-2-oxo-thyl}-1H-indazole-3-carboxylic acid amide], for which the IC50 amounted to 48 nM.

`CC1(C)CCC[C@@H](NC(=O)[C@@H]2C[C@@]3(CO)C[C@H]3N2C(=O)Cn2nc(C(N)=O)c3ccccc32)C1` [Example 111, 1-{2-[(1R,3S,5S)-3-((R)-3,3-Dimethyl-cyclohexylcarbamoyl)-5-hydroxymethyl-2-aza-bicyclo[3.1.0]hex-2-yl]-2-oxo-ethyl}-1H-indazole-3-carboxylic acid amide]: the IC50 stood at 10 nM.

Consider `CC1(C)CCC[C@H](NC(=O)[C@@H]2C[C@@]3(CO)C[C@H]3N2C(=O)Cn2nc(C(N)=O)c3ccccc32)C1` [Example 112, 1-{2-[(1R,3S,5S)-3-((S)-3,3-Dimethyl-cyclohexylcarbamoyl)-5-hydroxymethyl-2-aza-bicyclo[3.1.0]hex-2-yl]-2-oxo-ethyl}-1H-indazole-3-carboxylic acid amide], for which the IC50 came out at 370 nM.

With `CC(=O)c1nn(CC(=O)N2[C@H](C(=O)N[C@@H]3CCCC(C)(C)C3)C[C@@]3(CO)C[C@@H]23)c2ncccc12` [Example 115, (1R,3S,5S)-2-[2-(3-Acetyl-pyrazolo[3,4-b]pyridin-1-yl)-acetyl]-5-hydroxymethyl-2-aza-bicyclo[3.1.0]hexane-3-carboxylic acid ((R)-3,3-dimethyl-cyclohexyl)-amide], the IC50 stood at 22 nM.

For `CC(=O)c1nn(CC(=O)N2[C@H](C(=O)N[C@H]3CCCC(C)(C)C3)C[C@@]3(CO)C[C@@H]23)c2ncccc12` [Example 116, (1R,3S,5S)-2-[2-(3-Acetyl-pyrazolo[3,4-b]pyridin-1-yl)-acetyl]-5-hydroxymethyl-2-aza-bicyclo[3.1.0]hexane-3-carboxylic acid ((S)-3,3-dimethyl-cyclohexyl)-amide], the IC50 came to 1600 nM.

Regarding `CC1(O)CCCC(NC(=O)[C@@H]2C[C@H]3C[C@H]3N2C(=O)Cn2nc(C(N)=O)c3ccccc32)C1` (stereo partly drawn) [Example 123, 1-(2-((1R,3S,5R)-3-(3-hydroxy-3-methylcyclohexylcarbamoyl)-2-azabicyclo[3.1.0]hexan-2-yl)-2-oxoethyl)-1H-indazole-3-carboxamide], the IC50 is 920 nM.

In the case of `C[C@]1(CO)CCC[C@@H](NC(=O)[C@@H]2C[C@H]3C[C@H]3N2C(=O)Cn2nc(C(N)=O)c3ccccc32)C1` [Example 127, 1-(2-((1R,3S,5R)-3-(((1R,3S)-3-(hydroxymethyl)-3-methylcyclohexyl)carbamoyl)-2-azabicyclo[3.1.0]hexan-2-yl)-2-oxoethyl)-1H-indazole-3-carboxamide], the IC50 is 80 nM.

On to `C[C@@]1(CO)CCC[C@H](NC(=O)[C@@H]2C[C@H]3C[C@H]3N2C(=O)Cn2nc(C(N)=O)c3ccccc32)C1` [Example 128, 1-(2-((1R,3S,5R)-3-(((1S,3R)-3-(hydroxymethyl)-3-methylcyclohexyl)carbamoyl)-2-azabicyclo[3.1.0]hexan-2-yl)-2-oxoethyl)-1H-indazole-3-carboxamide], for which the IC50 was 2210 nM.

The same assay, now with this note: read-out: IC50.
With `CC(=O)c1nn(CC(=O)N2[C@H](C(=O)N[C@@H]3CCCC(C)(C)C3)C[C@@]3(CO)C[C@@H]23)c2cnccc12` [Example 121, (1R,3S,5S)-2-[2-(3-Acetyl-pyrazolo[3,4-c]pyridin-1-yl)-acetyl]-5-hydroxymethyl-2-aza-bicyclo[3.1.0]hexane-3-carboxylic acid ((R)-3,3-dimethyl-cyclohexyl)-amide], the IC50 stood at 15 nM.

With `CC(=O)c1nn(CC(=O)N2[C@H](C(=O)N[C@H]3CCCC(C)(C)C3)C[C@@]3(CO)C[C@@H]23)c2cnccc12` [Example 122, (1R,3S,5S)-2-[2-(3-Acetyl-pyrazolo[3,4-c]pyridin-1-yl)-acetyl]-5-hydroxymethyl-2-aza-bicyclo[3.1.0]hexane-3-carboxylic acid ((S)-3,3-dimethyl-cyclohexyl)-amide], the IC50 was 2200 nM.

Take `CC(=O)c1nn(CC(=O)N2[C@@H]3C[C@@H]3C[C@H]2C(=O)N[C@H]2C[C@H](O)CC(C)(C)C2)c2ccccc12` [Example 124, (1R,3S,5R)-2-(2-(3-acetyl-1H-indazol-1-yl)acetyl)-N-((1R,5R)-5-hydroxy-3,3-dimethylcyclohexyl)-2-azabicyclo[3.1.0]hexane-3-carboxamide]: the IC50 turned out to be 10 nM.

Consider `CC(=O)c1nn(CC(=O)N2[C@@H]3C[C@@H]3C[C@H]2C(=O)N[C@@H]2C[C@@H](O)CC(C)(C)C2)c2ccccc12` [Example 125, (1R,3S,5R)-2-(2-(3-acetyl-1H-indazol-1-yl)acetyl)-N-((1S,5S)-5-hydroxy-3,3-dimethylcyclohexyl)-2-azabicyclo[3.1.0]hexane-3-carboxamide], for which the IC50 came out at 1100 nM.
